Assay results reported in the supplement of paper PMC11451515.

Legend:
Test in all cases: AUC of viability dose-response curve (% viability x log10 dose units); higher = less sensitive
Conditions in all cases: 48 h
SEM cells = system: SEM cells
Summary of the method: (§1)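 In 1536-well plates, leukemia cells adapted to each medium (500 or 1000 cells/well) were exposed for 48 h at 37°C to library compounds in DMSO across 11 threefold doses, 47 μM down to 0.79 nM. Viability was read by CellTiter-Glo One luminescence and normalised per plate to DMSO and cell-free wells. A four-parameter log-logistic fit over log10 doses was integrated by trapezoidal rule. This yielded the area under the curve, with over-full-viability curves scaled and quality-control failures dropped.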

P12-Ichikawa = system: P12-Ichikawa
Summary of the method: as §1

NOMO1 = system: NOMO1
Summary of the method: as §1

[1] = RPMI 5 mM glucose + 10% dialyzed FBS

Compound | AUC of viability dose-response curve (SEM cells; HPLM + 10% dialyzed FBS) | AUC of viability dose-response curve (SEM cells; RPMI 5 mM glucose + 10% FBS) | AUC of viability dose-response curve (SEM cells; [1]) | AUC of viability dose-response curve (P12-Ichikawa; HPLM + 10% dialyzed FBS) | AUC of viability dose-response curve (P12-Ichikawa; RPMI 5 mM glucose + 10% FBS) | AUC of viability dose-response curve (P12-Ichikawa; [1]) | AUC of viability dose-response curve (NOMO1; HPLM + 10% dialyzed FBS) | AUC of viability dose-response curve (NOMO1; RPMI 5 mM glucose + 10% FBS) | AUC of viability dose-response curve (NOMO1; [1])
C[C@H](NC(=O)[C@@H](O)c1cc(F)cc(F)c1)C(=O)N[C@@H]1C(=O)N(C)c2ccccc2-c2ccccc21 | 440 | 453 | 417 | 432 | 441 | 437 | 402 | 450 | 432
CC[C@H]1OC(=O)[C@H](C)[C@@H](O[C@H]2C[C@@](C)(OC)[C@@H](O)[C@H](C)O2)[C@H](C)[C@@H](O[C@@H]2O[C@H](C)C[C@H](N(C)C)[C@H]2O)[C@](C)(O)C[C@@H](C)/C(=N\OCOCCOC)[C@H](C)[C@@H](O)[C@]1(C)O | 423 | 444 | 465 | 423 | 390 | 407 | 409 | 424 | 374
Cc1nnc(C(C)C)n1[C@@H]1C[C@H]2CC[C@@H](C1)N2CC[C@H](NC(=O)C1CCC(F)(F)CC1)c1ccccc1 | 425 | 379 | 419 | 460 | 454 | 437 | 445 | 411 | 394
Clc1ccc(CCC(Cn2ccnc2)Sc2c(Cl)cccc2Cl)cc1 (stereo unspecified) | 366 | 422 | 408 | 450 | 444 | 404 | 449 | 402 | 432
COc1cc(C[C@@H](CO)[C@H](CO)Cc2ccc(O)c(OC)c2)ccc1O | 452 | 444 | 455 | 464 | 457 | 439 | 467 | 456 | 476
COc1ccc(-n2c(C)c([N+](=O)[O-])c3ccc(O)cc32)cc1 | 469 | 453 | 468 | 446 | 465 | 464 | 452 | 476 | 446
CCN1\C=C(C(O)=O)/C(=O)C2=C1C(=C(N3CCNC(C)C3)C(=C2)F)F (stereo unspecified) | 467 | 471 | 469 | 462 | 457 | 461 | 458 | 471 | 452
CN(C)CCc1c[nH]c2ccc(Cn3cncn3)cc12 | 267 | 226 | 257 | 329 | 312 | 286 | 318 | 277 | 311
CCCCN1CCC(CNC(=O)c2c3n(c4ccccc24)CCCO3)CC1 | 431 | 474 | 462 | 461 | 459 | 465 | 474 | 467 | 470
